Source: paper PMC12368478, “Targeting Ubiquitin‐Specific Protease 7 with Novel 5‐Amino‐Pyrazole Inhibitors: Design, Synthesis, and Biological Evaluation” (Chemmedchem, 2025)
Several values for one entry are separate records, joined by “and”; a condition that tells them apart may be missing. Identical values can stand only once.

Columns and labels:
[1] = system: SK‐Mel28 cutaneous melanoma; experiment: MTT assay, SK‐Mel28; assay type: cell-based; conditions: SK‐Mel28, 10 μM, 48 h
Method: (§1) To evaluate the cytotoxicity of the novel USP‐7 inhibitors, compounds 1a–d were preliminary screened at a fixed concentration of 10 μM against eight different cancer cell lines (namely, MCF7 breast adenocarcinoma, SKOV‐3 ovarian adenocarcinoma, Hep‐G2 hepatocellular carcinoma, SK‐Mel28 cutaneous melanoma, MDA‐MB‐231 breast adenocarcinoma, SK‐BR3 breast adenocarcinoma, HeLa cervix epithelioid carcinoma, and A549 lung adenocarcinoma) as well as nonmutated human embryonic fibroblasts (GM‐6114). Cisplatinum (Cis‐Pt) was used as the reference compound.
(§2) To perform the MTT assay, SK‐BR3 (breast adenocarcinoma, Biologic Bank and Cell Factory, IRCCS Policlinico San Martino, Genoa, Italy), MCF‐7 (breast adenocarcinoma, Biologic Bank and Cell Factory, IRCCS Policlinico San Martino, Genoa, Italy), SK‐Mel28 (skin melanoma, Biologic Bank and Cell Factory, IRCCS Policlinico San Martino, Genoa, Italy), Hep‐G2 (hepatocellular carcinoma, ATCC, Manassas, VA), SKOV‐3 (ovarian adenocarcinoma, ATCC, Manassas, VA), MDA‐MB‐231 (breast adenocarcinoma, Biologic Bank and Cell Factory, IRCCS Policlinico San Martino, Genoa, Italy), HeLa (cervical adenocarcinoma, Biologic Bank and Cell Factory, IRCCS Policlinico San Martino, Genoa, Italy), A549 (lung adenocarcinoma, ATCC, Manassas, VA), and GM‐6114 (normal human embryonic fibroblast, ATCC, Manassas, VA) cell lines were cultured in Dulbecco's modified eagle medium (DMEM added with 10% Fetal bovine serum, 2 mM Glutamine, and 1% pen‐strep) and incubated in a humidified environment at 37 °C with 5% CO2. Reagents were acquired from EuroClone (Milan, Italy). All chemical compounds were dissolved in DMSO to give a 10 mM stock solution. Then, after an intermediate dilution in growth medium, they were added to the cultured cells at a final working concentration of 10 μM and incubated for 48 h. At the end of the incubation, 30 μL of MTT (3‐(4,5‐dimethyl‐2‐thiazolyl)‐2,5‐diphenyl‐2H‐tetrazolium bromide) at a concentration of 2 mg mL^−1 in phosphate buffered saline (PBS) were added into each well and further incubated for 4 h. Finally, the supernatants were removed and 100 μL well of DMSO were added to each well to dissolve the Formazan precipitates. After 20 min, plates were read at 570 nm. Results are expressed as the percentage of the control samples where cells have been treated with the same amount of DMSO but without any chemical compound. The assay was repeated three times, and a single compound was tested six times. Means and standard deviations were calculated.

[2] = system: HeLa cervix epithelioid carcinoma; experiment: MTT assay, HeLa; assay type: cell-based; conditions: 10 μM, 48 h
Method: as §1, §2

[3] = system: MCF7 breast adenocarcinoma; experiment: MTT assay, MCF7; assay type: cell-based; conditions: MCF7, 10 μM, 48 h
Method: as §1, §2

[4] = system: Hep‐G2 hepatocellular carcinoma; experiment: MTT assay, Hep‐G2; assay type: cell-based; conditions: Hep‐G2, 10 μM, 48 h
Method: as §1, §2

[5] = system: SKOV‐3 ovarian adenocarcinoma; experiment: MTT assay, SKOV‐3; assay type: cell-based; conditions: SKOV‐3, 10 μM, 48 h
Method: as §1, §2

[6] = system: MDA‐MB‐231 breast adenocarcinoma; experiment: MTT assay, MDA‐MB‐231; assay type: cell-based; conditions: MDA‐MB‐231, 10 μM, 48 h
Method: as §1, §2

A549 lung adenocarcinoma = experiment: MTT assay, A549; assay type: cell-based; conditions: A549, 10 μM, 48 h
Method: as §1, §2

[7] = system: SK‐BR3 breast adenocarcinoma; experiment: MTT assay, SK‐BR3; assay type: cell-based; conditions: SK‐BR3, 10 μM, 48 h
Method: as §1, §2

recombinant USP‐7 = target: T1, recombinant USP‐7 (Homo sapiens, UniProt Q93009); experiment: USP‐7 fluorescence-based enzymatic assay (Ub‐AMC); assay type: biochemical; conditions: recombinant USP‐7, Ubiquitin–AMC substrate, 30 min preincubation; average of three separate experiments
T1 construct: purchased BPS Bioscience 79,256
T1 sequence (Q93009 whole entry): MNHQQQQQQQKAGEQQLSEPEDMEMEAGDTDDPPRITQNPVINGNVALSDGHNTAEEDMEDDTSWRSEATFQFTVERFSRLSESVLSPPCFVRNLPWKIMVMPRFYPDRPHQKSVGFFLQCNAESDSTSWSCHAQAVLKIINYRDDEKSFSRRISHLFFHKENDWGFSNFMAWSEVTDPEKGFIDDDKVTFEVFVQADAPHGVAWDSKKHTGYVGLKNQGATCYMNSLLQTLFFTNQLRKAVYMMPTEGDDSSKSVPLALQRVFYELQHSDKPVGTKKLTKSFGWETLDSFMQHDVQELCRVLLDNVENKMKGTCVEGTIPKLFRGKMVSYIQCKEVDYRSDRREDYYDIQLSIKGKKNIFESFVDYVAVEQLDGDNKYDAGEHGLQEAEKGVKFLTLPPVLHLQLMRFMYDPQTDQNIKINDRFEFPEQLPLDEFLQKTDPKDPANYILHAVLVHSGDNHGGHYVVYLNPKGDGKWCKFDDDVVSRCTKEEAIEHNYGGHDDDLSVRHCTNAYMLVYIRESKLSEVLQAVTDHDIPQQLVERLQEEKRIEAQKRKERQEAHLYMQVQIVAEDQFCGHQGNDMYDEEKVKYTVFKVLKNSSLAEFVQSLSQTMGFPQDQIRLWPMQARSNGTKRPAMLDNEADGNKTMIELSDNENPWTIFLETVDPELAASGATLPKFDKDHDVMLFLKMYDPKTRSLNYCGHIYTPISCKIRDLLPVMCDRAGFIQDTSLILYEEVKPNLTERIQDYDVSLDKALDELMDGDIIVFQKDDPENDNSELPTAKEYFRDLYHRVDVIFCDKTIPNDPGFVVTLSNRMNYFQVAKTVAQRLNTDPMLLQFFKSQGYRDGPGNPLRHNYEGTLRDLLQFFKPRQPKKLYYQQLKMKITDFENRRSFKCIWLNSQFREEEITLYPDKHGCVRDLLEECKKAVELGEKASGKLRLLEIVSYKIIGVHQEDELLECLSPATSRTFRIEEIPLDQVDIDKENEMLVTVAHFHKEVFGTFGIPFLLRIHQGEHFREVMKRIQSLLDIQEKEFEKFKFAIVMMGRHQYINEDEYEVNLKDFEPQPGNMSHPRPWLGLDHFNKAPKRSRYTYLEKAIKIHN
Method: The inhibition efficiency of compounds 1a–d and 2a–d on the USP‐7 enzyme was assessed using a fluorescence‐based enzymatic assay, employing Ubiquitin–AMC as a substrate. In this assay, USP‐7 hydrolyzes Ubiquitin–AMC, leading to an increase in fluorescence signal. To evaluate the inhibitory potential, recombinant USP‐7 was preincubated with varying concentrations of the test compounds before adding the substrate, and fluorescence intensity was subsequently measured. […] Additionally, the elongation of the side chain in compounds 2a–d completely abolished the activity.
In vitro enzymatic inhibition was measured using the USP‐7 inhibitor screening assay kit (catalog #79,256, BPS Bioscience, San Diego, CA, USA) according to the manufacturer's instructions. Briefly, compound stock solutions were prepared in DMSO and diluted tenfold to obtain the working solutions. Then, these solutions and the vehicle control were added to the black 384‐wells plate, together with the USP‐7 enzyme, previously diluted as required by the manufacturer, and incubated at rt for 30 min. Then, the Ub‐AMC substrate was diluted 400‐fold and added to the plate, followed by incubation at rt for 30 min. The final DMSO amount in each well was 1%.

[8] = system: nonmutated human embryonic fibroblasts (GM‐6114); experiment: MTT assay, GM‐6114; assay type: cell-based; conditions: GM‐6114 healthy fibroblasts, 10 μM, 48 h
Method: as §1, §2

[9] = Parallel artificial membrane permeability assay (PAMPA); assay type: in vitro ADME; conditions: for LogPe ± SD: PBS pH 7.4, 5 h
Method: The assay was prepared as follows: 300 μL of PBS pH 7.4 (5% DMSO) was placed in the acceptor wells. A phosphatidylcholine (PC) solution was obtained by dissolving and vortexing PC at 1% w/v in dodecane and solubilized using an ultrasound bath until a clear solution was obtained. […] of this solution was deposited on the membrane portion of the donor well. 150 μL of each molecule, at 100–250 μM final concentration (5% DMSO), was pipetted in the […]. The acceptor (Multiscreen transport Receiver Plate, 96‐well, polystyrene, Millipore) and donor plates (Multiscreen Filter Plates, IP, […], clear, hydrophobic PVDF, Millipore) were subsequently assembled and incubated for 5 h under gentle orbital shaking. The experiment was conducted in duplicate. Lucifer yellow was used as a negative control to establish the integrity of the membrane, quantifying its concentration in both acceptor and donor solutions using fluorescence. […] The results are expressed as means ± SEM of at least three independent experiments.

USP‐7 = system: USP‐7; parameters: method as in PMID 37298148; conditions: in vitro and in‐cell assays, neuroblastoma‐related cells; cited from earlier work
[10] = system: neuroblastoma HTLA‐230 cells; parameters: method as in PMID 36780313; conditions: cited from earlier work

| Compound | Cell growth percent [%] [1] | Cell growth percent [%] [2] | Cell growth percent [%] [3] | Cell growth percent [%] [4] | Cell growth percent [%] [5] | Cell growth percent [%] [6] | Cell growth percent [%] (A549 lung adenocarcinoma) | Cell growth percent [%] [7] | IC50 (recombinant USP‐7) | Cell growth percent [%] [8] | LogPe ± SD ([9]; 100 μM) | LogPe ± SD ([9]; 250 μM) | membrane permeability (in words) ([9]; 100 and 250 μM) | inhibition of USP‐7 enzymatic activity and expression levels (USP‐7) | inhibition of migratory ability [10] |
| --- | --- | --- | --- | --- | --- | --- | --- | --- | --- | --- | --- | --- | --- | --- | --- |
| N.N.[Cl][Pt][Cl] [Cis ‐Pt, Cisplatinum, reference compound] | 44.40% | 29.33% | 72.74% | 38.07% | 26.83% | 86.07% | 59.09% | 70.59% | – | – | – | – | – | – | – |
| CCOC(=O)c1cnn(CC(C)OC(=O)Nc2ccccc2F)c1N (stereo not drawn) [Compound 1a, Ethyl 5‐Amino‐1‐(2‐(((2‐Fluorophenyl)Carbamoyl)Oxy)Propyl)‐1H‐Pyrazole‐4‐Carboxylate] | 95.28% | 105.06% | 109.46% | 97.50% | 102.26% | 106.29% | 104.43% | 98.76% | 2.19 ± 0.49 µM | 105.96% | – | – | – | – | – |
| CCOC(=O)c1cnn(CC(C)OC(=O)Nc2cccc(F)c2)c1N (stereo not drawn) [Compound 1b, Ethyl 5‐Amino‐1‐(2‐(((3‐Fluorophenyl)Carbamoyl)Oxy)Propyl)‐1H‐Pyrazole‐4‐Carboxylate] | 115.09% | 95.63% | 104.08% | 95.70% | 98.78% | 73.53% | 39% and 39.06% | 135.91% | 1.48 ± 0.31 µM | 68.07% | – | – | – | – | – |
| CCOC(=O)c1cnn(CC(C)OC(=O)Nc2ccc(F)cc2)c1N (stereo not drawn) [Compound 1c, Ethyl 5‐Amino‐1‐(2‐(((4‐Fluorophenyl)Carbamoyl)Oxy)Propyl)‐1H‐Pyrazole‐4‐Carboxylate] | 88.22% | 108.28% | 108.02% | 100.11% | 99.94% | 103.39% | 114.96% | 101.55% | 1.8 ± 0.39 µM | 112.09% | – | – | – | – | – |
| CCOC(=O)c1cnn(CC(C)OC(=O)Nc2cccc(C(F)(F)F)c2)c1N (stereo not drawn) [Compound 1d, Ethyl 5‐Amino‐1‐(2‐(((3‐(Trifluoromethyl)Phenyl)Carbamoyl)Oxy)Propyl)‐1H‐Pyrazole‐4‐Carboxylate] | 90.77% | 106.40% | 113.85% | 100.73% | 99.40% | 119.94% | 90.69% | 95.04% | 1.31 ± 0.21 µM | 96.18% | −4.54 ± 0.02 | −4.81 ± 0.00 | highly permeable | – | – |
| CCOC(=O)c1cnn(CC(C)O)c1NC(=O)Nc1cccc(F)c1 (stereo not drawn) [STIRUR‐41, reference compound] | 94.26% | 99.83% | 110.71% | 111.36% | 100.50% | 64.32% | 38.88% | 97.17% | 2.77 ± 0.56 µM | 38.50% | – | – | – | inhibit both the enzymatic activity of USP‐7 and its expression levels | significant inhibition |
